Where “and” joins values, the source holds several entries; their conditions need not be identical. Equal values may be shown once.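 How tested: cells in 96-well plates exposed to compound for 48 hours at five concentrations. Abbreviation: GI50, concentration required for 50% inhibition of growth. TGI: concentration producing complete growth inhibition.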
How the values were obtained:
Experiment in all cases: NCI tumour cell line growth inhibition, 48 h
MOLT-4 leukemia = system: MOLT-4 leukemia
SF-268 CNS = system: SF-268 CNS
M14 melanoma = system: M14 melanoma
SR leukemia = system: SR leukemia
OVCAR-3 ovarian = system: OVCAR-3 ovarian
UACC-62 melanoma = system: UACC-62 melanoma
KM12 colon = system: KM12 colon
EKVX NSCLC = system: EKVX NSCLC
OVCAR-8 ovarian = system: OVCAR-8 ovarian
ACHN renal = system: ACHN renal

Row | SMILES | TGI (MOLT-4 leukemia) [µM] | TGI (SF-268 CNS) [µM] | TGI (M14 melanoma) [µM] | TGI (SR leukemia) [µM] | TGI (OVCAR-3 ovarian) | TGI (UACC-62 melanoma) | TGI (KM12 colon) [µM] | TGI (EKVX NSCLC) [µM] | TGI (OVCAR-8 ovarian) [µM] | TGI (ACHN renal) | GI50 (OVCAR-8 ovarian) | GI50 (MOLT-4 leukemia) | GI50 (ACHN renal) | GI50 (SF-268 CNS) | GI50 (M14 melanoma) | GI50 (OVCAR-3 ovarian) | GI50 (UACC-62 melanoma) | GI50 (KM12 colon) | GI50 (SR leukemia) [µM] | GI50 (EKVX NSCLC) [µM]
1 | CN(C)CC/C(=N\Nc1ccccc1)c1ccccc1 | > 100 | > 100 | 4.73 | > 100 | 27.7 µM | > 100 µM | 18.3 | 41.2 |  |  |  |  |  |  |  |  |  |  |  | 
2 | O=C1c2ccccc2C2(O)NC(=S)N(c3ccccc3)C12O (configuration not stated) | > 100 | > 100 | > 100 | > 100 | > 100 µM | > 100 µM | > 100 | > 100 | > 100 |  |  |  |  |  |  |  |  |  |  | 
3 | CC(C)C1CCC/C=C/C=C/C=C/C=C/C(OC2OC(C)C(O)C(N)C2O)CC2OC(O)(CC(O)CC(O)C(O)CCC(=O)O1)CC(O)C2C(=O)O (configuration not stated) | > 52.5 | > 52.5 | > 52.5 | > 52.5 | > 52.5 µM | > 52.5 µM |  |  | > 52.5 | > 52.5 µM |  |  |  |  |  |  |  |  |  | 
4 | O=C(O)CC12C3C4C5C3C1C5C42 (configuration not stated) | > 100 | > 100 | > 100 |  | > 100 µM | > 100 µM | > 100 | > 100 | > 100 | > 100 µM |  |  |  |  |  |  |  |  |  | 
5 | COc1ccc2c(c1)OC1=C(C(=O)OC1)C2c1cc(OC)c(OC)c(OC)c1 (configuration not stated) | > 47.2 | > 100 | > 100 |  | 1.14 µM | > 100 µM | > 89.6 | > 100 | > 100 | > 100 µM | 0.709 µM | 0.542 µM | 1.27 µM | 1.91 µM | 0.471 µM | 0.313 µM | 0.55 µM | 0.396 µM |  | 
6 | CC(C)CNc1nc(-c2ccccc2)nc2ccccc12 | 38.1 | 37.4 | 26.4 | 30.9 | 31 µM | 29.4 µM | 26.4 |  | 31.8 | 29.5 µM | 15 µM | 13.7 µM | 16 µM | 18.3 µM | 13.5 µM | 15.7 µM | 14.6 µM | 12.7 µM | 10.1 | 
7 | COC(=O)C12CC(c3ccccc31)C1C(=O)OC(=O)C12 (configuration not stated) | > 100 | > 100 | > 100 |  | > 100 µM | > 100 µM | > 100 | > 100 | > 100 | > 100 µM |  |  |  |  |  |  |  |  |  | 
8 | Cc1ccc(NC(=O)CCC/C(CC(=O)c2ccc(Br)cc2)=N/NC(=O)CC#N)cc1 | > 100 | > 100 | > 100 |  | > 100 µM | > 100 µM | > 100 | > 100 | > 100 | > 100 µM |  |  |  |  |  |  |  |  |  | 
9 | O=C(N/N=C/c1ccccc1Cl)c1ccccc1Nc1ccnc(C(F)(F)F)c1 |  | 10.5 | 7.19 |  | 3.68 µM | 3.72 µM | 6.66 | 5.94 | 8.08 | 4.72 µM | 2.29 µM |  | 1.16 µM | 1.8 µM | 1.63 µM | 0.832 µM | 0.976 µM | 1.99 µM |  | 1.65
10 | CCn1c(O)c(C=N)c(=O)n(CC)c1=O | > 100 | > 100 | > 100 |  | > 100 µM | > 100 µM | > 100 | > 100 | > 100 | > 100 µM |  |  |  |  |  |  |  |  |  | 
11 | CCc1nc(N)nc(C(=O)NCCNC(=O)c2nc(N)nc(CC)c2C)c1C | > 100 | > 100 | > 100 |  | > 100 µM | > 100 µM | > 100 | > 100 | > 100 | > 100 µM |  |  |  |  |  |  |  |  |  | 
12 | CCCN1CCN(c2ccc3nc(-c4ccc5nc(-c6cc(OC)ccc6OC)[nH]c5c4)[nH]c3c2)CC1 | 4.31 | 43 | 3.31 | 5.54 | 3.39 µM | 34.7 µM | 3.46 | 3.35 |  | 3.06 µM |  | 2.09 µM | 1.69 µM | 18.6 µM | 1.78 µM | 1.84 µM | 19 µM | 1.86 µM | 2.55 | 1.81
13 | COc1cc(C(=O)C/C(CCC(=O)Nc2ccc(Cl)cc2C)=N/NC(=O)C(N)=O)ccc1O | > 100 | > 100 | > 100 |  | > 100 µM | > 100 µM | > 100 | > 100 | > 100 | > 100 µM |  |  |  |  |  |  |  |  |  | 
14 | Cc1nc2cc(N)c(F)cc2[nH]1 | > 100 | > 100 |  | > 100 |  | > 100 µM | > 100 | > 100 | > 100 | > 100 µM |  |  |  |  |  |  |  |  |  | 
15 | COC1OC(C)C(O)CC1OS(=O)(=O)c1ccc(C)cc1 (configuration not stated) | > 100 | > 100 | > 100 |  | > 100 µM | > 100 µM | > 100 | > 100 | > 100 | > 100 µM |  |  |  |  |  |  |  |  |  | 
16 | CCCCc1ccc(-n2c3nc(=O)n(C)c(=O)c-3nc3ccccc32)cc1 | 41.9 | 34.1 | 21.7 |  | 10.1 µM | 4 µM | 26.6 | 15.5 | 32.1 | 23.1 µM |  |  |  |  |  |  |  |  |  | 
17 | O=P([O-])(O)OP(=O)([O-])O.[NH-][C@@H]1CCCC[C@H]1[NH-].[Pt+4] | > 100 | > 100 | > 100 |  | > 100 µM and 29.4 µM | > 100 µM and 33.5 µM | > 100 | > 100 | > 100 | > 100 µM and 58.2 µM | 14.1 µM and 2.42 µM | 5.9 µM and 3.29 µM | 4.78 µM and 5.63 µM | 60.6 µM and 6.27 µM | 38.9 µM and 14.8 µM | 23.8 µM and 11.2 µM | 9.62 µM and 4.21 µM | 50.8 µM and 24 µM |  | > 100
18 | C1CCN(C2OC3C(COC3N3CCCCC3)OC2OC2CCO[C@@H]2N2CCCCC2)CC1 (some centres not stated) | 84.7 | > 100 | > 100 |  | 89.3 µM | 41.8 µM | > 100 | > 100 | 59.2 | > 100 µM |  |  |  |  |  |  |  |  |  | 
19 | Cc1cc(N2CCN(c3ccnc4cc(Cl)ccc34)CC2)nc(NC2CCCCC2)n1 | 5.62 | 5.41 | 3.36 | 4.73 | 3.9 µM | 3.34 µM | 6.27 |  | 6.35 |  | 2.39 µM | 2.38 µM |  | 2.34 µM | 1.7 µM | 1.9 µM | 1.66 µM | 2.56 µM | 1.93 | 
